Experimental data published in patent US20070166547A1, “Use of a layer consisting of hydrophobic linear, or two-dimensional polycyclic aromatics as a barrier layer or an encapsulation and electric components constructed with a layer of this type and comprising organic polymers” (priority 2003, published 2007).

What was measured:
[1] = Polarographic study of electrochemical reduction (electrochemical activity); format: physicochemical; details: for number of electrons participating in the reduction: calculated with the Geirovsky-Ilkovich equation; for i, mkA (polarographic wave current) / −E1/2, V (half-wave potential vs SCE): 37° C., forward trace, average for the group; for i, mkA (polarographic wave current): 9·10^−4 M; for half-wave potential more positive on reverse stroke than on forward stroke: reverse stroke vs forward stroke
How it was run: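 DC polarography at 37 °C on a dropping mercury electrode (0.5 s drop) against SCE with a Pt auxiliary electrode. Compounds at 9·10^−4 M in N2-purged 2.0% NaCl at pH 7.0–7.6, scanned 0 to −0.5 V at 10.0 mV/s. E1/2 and ilim were determined graphically; electron number was derived by Heyrovsky–Ilkovič analysis.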

plasma hemostasis = assay: Autocoagulation test (coagulating activity A) after intravenous administration; format: in vivo, rabbit; details: for effect on the coagulation activity, autocoagulation test (overall): doses 15.0, 30.0, 60.0 mg/kg
Protocol: The investigations were performed on 72 rabbits of the “Chinchilla” breed with a mass of 2.5±0.3 kg, who were administered which solutions of compounds 2, 15, 21, 37 in doses of 15, 30 and 60 mg/kg intravenously. The experiments included the thrombin-test (series No. 7300) and the coagulability-test (series No. 5000) purchased from the scientific-and-production association (SPA) “Renam”, thromboplastin (series No. 240600) and calcium chloride purchased from the SPA “MedioLab”
The static parameters of the blood and plasma coagulation (partial activated thromboplastin time, thrombin time, maximum coagulation activity (test for auto coagulation) were determined using the Behnk Electronic coagulometer (Germany). The operating principle of this instrument is based on the fact that the formed blood clot breaks the contacts of the pulse counter in the flask-pin circuit, said pin permanently oscillating in a vertical plane. The moment of formation of the clot is registered by stopping the stop watch hand.
The measurements were effected at a constant temperature of 37° C. maintained by a temperature control unit.
Compounds 2, 15, 21, 37 according to the invention at a concentration of 15, 30 and 60 mg/kg were intravenously administered to the above experimental animals and their blood samples were taken off 15, 30, 60 and 120 minutes after the administration.
Added to 0.2 ml of plasma obtained by centrifuging citrate blood at 1500 rev/min within 10 minutes was a glycosilate-calcium mixture (2.0 ml 0.222% CaCl2+0.1 ml of investigated citrate blood) 4, 6, 8, 10 minutes after the preparation of this mixture and the time of coagulation in the sample was determined.
The obtained results in seconds were translated in factors of coagulating activity A in percent, which specify the state of both the coagulating and anticoagulating parts of the blood coagulating system.

Row | SMILES | number of electrons participating in the reduction [1] | i, mkA (polarographic wave current) ([1]; pH 7.0) [mkA] | −E1/2, V (half-wave potential vs SCE) ([1]; pH 7.0) [V] | i, mkA (polarographic wave current) ([1]; pH 7.2) [mkA] | i, mkA (polarographic wave current) ([1]; pH 7.4) [mkA] | −E1/2, V (half-wave potential vs SCE) ([1]; pH 7.4) [V] | i, mkA (polarographic wave current) ([1]; pH 7.6) [mkA] | −E1/2, V (half-wave potential vs SCE) ([1]; pH 7.6) [V] | A, % after 15 minutes (coagulating activity) (plasma hemostasis; dose 15.0 mg/kg intravenously) [%] | A, % after 30 minutes (coagulating activity) (plasma hemostasis; dose 15.0 mg/kg intravenously) [%] | A, % after 60 minutes (coagulating activity) (plasma hemostasis; dose 15.0 mg/kg intravenously) [%] | A, % after 120 minutes (coagulating activity) (plasma hemostasis; dose 15.0 mg/kg intravenously) [%] | A, % after 15 minutes (coagulating activity) (plasma hemostasis; dose 30.0 mg/kg intravenously) [%] | A, % after 30 minutes (coagulating activity) (plasma hemostasis; dose 30.0 mg/kg intravenously) [%] | A, % after 60 minutes (coagulating activity) (plasma hemostasis; dose 30.0 mg/kg intravenously) [%] | A, % after 120 minutes (coagulating activity) (plasma hemostasis; dose 30.0 mg/kg intravenously) [%] | A, % after 15 minutes (coagulating activity) (plasma hemostasis; dose 60.0 mg/kg intravenously) [%] | A, % after 30 minutes (coagulating activity) (plasma hemostasis; dose 60.0 mg/kg intravenously) [%] | A, % after 60 minutes (coagulating activity) (plasma hemostasis; dose 60.0 mg/kg intravenously) [%] | A, % after 120 minutes (coagulating activity) (plasma hemostasis; dose 60.0 mg/kg intravenously) [%] | other results
1 | Nc1cccc2c(=O)[nH][nH]c(=O)c12.[Na] [Compound 15, sodium salt of 5-amino-benzo[d]-3H-pyridazine-1,4-dione] | 4.09 | 0.23 ± 0.03 | 0.092 ± 0.02 | 0.30 ± 0.01 | 0.29 ± 0.02 | 0.092 ± 0.02 | 0.31 ± 0.02 | 0.09 ± 0.01 | 82.3 | 103.0 | 89.0 | 101.2 | 100.3 | 68.4 | 106.6 | 70.6 | 74.4 | 63.2 | 64.4 | 66.5 | −E1/2, V (half-wave potential vs SCE) ([1]; pH 7.2): 0.09 ± 0.01 V; half-wave potential more positive on reverse stroke than on forward stroke [1]: 30.0 mV; effect on the coagulation activity, autocoagulation test (overall) (plasma hemostasis): have no effect on the coagulation activity
2 | O=c1[nH]n([C@@H]2O[C@H](CO)[C@@H](O)[C@H]2O)c(=O)c2nc(O)cnc12.[Na].[Na] [Compound 23, disodium salt of 2-hydroxy-7-(β-D-ribofuranosile)pyrazine[2,3-Cl]-6H-pyridazine-5,8-dione] | 3.72 | 0.32 ± 0.03 | 0.16 ± 0.02 | 0.33 ± 0.04 | 0.34 ± 0.03 | 0.175 ± 0.01 | 0.34 ± 0.02 | 0.16 ± 0.015 | – | – | – | – | – | – | – | – | – | – | – | – | −E1/2, V (half-wave potential vs SCE) ([1]; pH 7.2): 0.19 ± 0.02 V; half-wave potential more positive on reverse stroke than on forward stroke [1]: 20.0 mV
3 | Nc1ncc2c(=O)[nH][nH]c(=O)c2n1 [Compound 36, 2-amino-pyrimido[4,5-d]-6H-pyridazine-5,8-dione] | 3.5 | 0.30 ± 0.05 | 0.08 ± 0.02 | 0.26 ± 0.02 | 0.30 ± 0.03 | 0.085 ± 0.02 | 0.30 ± 0.02 | 0.09 ± 0.02 | – | – | – | – | – | – | – | – | – | – | – | – | –
4 | O=c1[nH][nH]c(=O)c2c(Br)ncnc12.[K] [Compound 37, potassium salt of 4-bromine-pyrimido[4,5-D]-6H-pyridazine-5,8-dione] | – | – | – | – | – | – | – | – | 82.1 | 102.8 | 88.7 | 100.6 | 99.8 | 68.3 | 105.8 | 70.4 | 74.3 | 63.0 | 64.2 | 66.3 | effect on the coagulation activity, autocoagulation test (overall) (plasma hemostasis): have no effect on the coagulation activity
5 | Nc1cnc2c(=O)n([C@@H]3O[C@H](CO)[C@@H](O)[C@H]3O)[nH]c(=O)c2n1.[Na] [Compound 21, sodium salt of 3-amino-7-(β-D-ribofuranosile)pyrazine[2,3-d]-6H-pyridazine-5,8-dione] | – | – | – | – | – | – | – | – | 81.4 | 101.3 | 86.5 | 97.4 | 97.2 | 69.1 | 103.7 | 71.0 | 71.9 | 62.1 | 63.7 | 66.2 | effect on the coagulation activity, autocoagulation test (overall) (plasma hemostasis): have no effect on the coagulation activity
6 | O=c1[nH][nH]c(=O)c2nccnc12.[Li] [Compound 25, lithium salt of pyrazine[2,3-d]-6H-pyridazine-5,8-dione] | 3.72 | 0.32 ± 0.03 | 0.16 ± 0.02 | 0.33 ± 0.04 | 0.34 ± 0.03 | 0.175 ± 0.01 | 0.34 ± 0.02 | 0.16 ± 0.015 | – | – | – | – | – | – | – | – | – | – | – | – | −E1/2, V (half-wave potential vs SCE) ([1]; pH 7.2): 0.19 ± 0.02 V; half-wave potential more positive on reverse stroke than on forward stroke [1]: 20.0 mV
7 | Nc1ccnc2c(=O)n([C@@H]3O[C@H](CO)[C@@H](O)[C@H]3O)[nH]c(=O)c12 [Compound 2, 4-amino-7-(β-D-ribofuranosile)pyrido[2,3-d]-6H-pyridazine-5,8-dione] | – | – | – | – | – | – | – | – | 80.2 | 100.0 | 87.4 | 98.0 | 98.4 | 71.2 | 104.2 | 70.9 | 72.3 | 60.8 | 62.5 | 65.7 | effect on the coagulation activity, autocoagulation test (overall) (plasma hemostasis): have no effect on the coagulation activity
